Experimental data as given in ChEMBL document CHEMBL4814003, “Novel dual-mode antitumor chlorin-based derivatives as potent photosensitizers and histone deacetylase inhibitors for photodynamic therapy and chemotherapy” (Eur J Med Chem, 2021).

Legend:
[1] = tested on: HCT-116; experiment: Dark toxicity in human HCT-116 cells assessed as reduction in cell viability incubated under dark for 48 hrs measured after 48 hrs by CCK8 assay; type: functional, cell-based; details: HCT-116, 48 h
[2] = tested on: A549; experiment: Dark toxicity in human A549 cells assessed as reduction in cell viability incubated under dark for 48 hrs measured after 48 hrs by CCK8 assay; type: functional, cell-based; details: A549, 48 h
[3] = target: Histone deacetylase 1 (Homo sapiens, UniProt Q13547); experiment: Inhibition of human recombinant HDAC1 using Ac-Leu-Gly-Lys(Ac)-AMC as substrate by measuring fluorescence intensity incubated for 30 mins by microplate reader assay
[4] = tested on: A549; experiment: Phototoxicity in human A549 cells assessed as reduction in cell viability irradiated 10 j/cm2 for 24 hrs followed by incubated for 24 hrs by CCK8 assay; type: functional, cell-based; details: A549, light or radiation study
[5] = tested on: HCT-116; experiment: Phototoxicity in human HCT-116 cells assessed as reduction in cell viability irradiated 10 j/cm2 for 24 hrs followed by incubated for 24 hrs by CCK8 assay; type: functional, cell-based; details: HCT-116, light or radiation study
[6] = tested on: A549; experiment: Induction of reactive oxygen species generation in human A549 cells assessed as mean count value at 0.01 uM incubated for 24 hrs by DCFH-DA staining based fluorescence microscopy assay; type: functional
[7] = tested on: A549; experiment: Induction of reactive oxygen species generation in human A549 cells assessed as mean count value at 0.05 uM incubated for 24 hrs by DCFH-DA staining based fluorescence microscopy assay; type: functional
[8] = tested on: A549; experiment: Induction of autophagy in human A549 cells irradiated 10 j/cm2 at 0.1 uM after 24 hrs using fluorescent molecule DAPRed; type: functional

Sequence of Histone deacetylase 1 (Q13547 whole entry): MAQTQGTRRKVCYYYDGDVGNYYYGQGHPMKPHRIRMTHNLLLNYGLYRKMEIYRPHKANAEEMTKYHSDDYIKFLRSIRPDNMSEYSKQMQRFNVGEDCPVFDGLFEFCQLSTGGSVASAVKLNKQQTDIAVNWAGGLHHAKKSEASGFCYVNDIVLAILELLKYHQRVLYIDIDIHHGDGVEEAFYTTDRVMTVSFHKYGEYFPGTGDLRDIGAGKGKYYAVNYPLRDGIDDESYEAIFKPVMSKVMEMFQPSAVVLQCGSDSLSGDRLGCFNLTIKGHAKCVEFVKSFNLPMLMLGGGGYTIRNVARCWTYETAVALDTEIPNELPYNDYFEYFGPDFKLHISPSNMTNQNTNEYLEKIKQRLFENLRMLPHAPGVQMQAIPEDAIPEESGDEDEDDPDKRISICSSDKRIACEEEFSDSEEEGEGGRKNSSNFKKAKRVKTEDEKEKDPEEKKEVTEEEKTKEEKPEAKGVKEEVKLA

SMILES	IC50 [1]	IC50 [2]	IC50 [3]	IC50 [4]	IC50 [5]	Activity [6]	Activity [7]	Activity [8]
C=Cc1c(C)c2cc3nc(c(C(=O)OC)c4[nH]c(cc5nc(cc1[nH]2)C(C)=C5CC)c(C)c4C(=O)OC)[C@@H](CCC(=O)NCCCC(=O)Nc1ccccc1N)[C@@H]3C	9140 nM	3730 nM	201000 nM	310 nM	330 nM			
C=Cc1c(C)c2cc3nc(c(C(=O)OC)c4[nH]c(cc5nc(cc1[nH]2)C(C)=C5CC)c(C)c4C(=O)OC)[C@@H](CCC(=O)Nc1ccccc1N)[C@@H]3C	4140 nM	590 nM	224000 nM	180 nM	23 nM			
C=Cc1c(C)c2cc3nc(c(C(=O)OC)c4[nH]c(cc5nc(cc1[nH]2)C(C)=C5CC)c(C)c4C(=O)OC)[C@@H](CCC(=O)NO)[C@@H]3C	4180 nM	370 nM	79000 nM	130 nM	11 nM			
C=Cc1c(C)c2cc3nc(c(C(=O)OC)c4[nH]c(cc5nc(cc1[nH]2)C(C)=C5CC)c(C)c4C(=O)OC)[C@@H](CCC(=O)NCCCCCC(=O)NO)[C@@H]3C	6890 nM	1360 nM	88000 nM	120 nM	39 nM			
C=Cc1c(C)c2cc3nc(c(C(=O)OC)c4[nH]c(cc5nc(cc1[nH]2)C(C)=C5CC)c(C)c4C(=O)OC)[C@@H](CCC(=O)O)[C@@H]3C	31300 nM	15700 nM		300 nM	520 nM			
C=Cc1c(C)c2cc3nc(c(C(=O)OC)c4[nH]c(cc5nc(cc1[nH]2)C(C)=C5CC)c(C)c4C(=O)OC)[C@@H](CCC(=O)NCCCCC(=O)Nc1ccccc1N)[C@@H]3C	8630 nM	3510 nM	81000 nM	300 nM	260 nM			
C=Cc1c(C)c2cc3nc(c(CC(=O)N[C@@H](CC(=O)O)C(=O)O)c4[nH]c(cc5nc(cc1[nH]2)C(C)=C5CC)c(C)c4C(=O)O)[C@@H](CCC(=O)O)[C@@H]3C [TALAPORFIN]	50700 nM	181000 nM		6210 nM	2950 nM	125.93	153.14	19.08%
C=Cc1c(C)c2cc3nc(c(C(=O)OC)c4[nH]c(cc5nc(cc1[nH]2)C(C)=C5CC)c(C)c4C(=O)OC)[C@@H](CCC(=O)Nc1ccc(C(=O)NO)cc1)[C@@H]3C	3490 nM	930 nM	11000 nM	130 nM	270 nM			
C=Cc1c(C)c2cc3nc(c(C(=O)OC)c4[nH]c(cc5nc(cc1[nH]2)C(C)=C5CC)c(C)c4C(=O)OC)[C@@H](CCC(=O)NCCCCCC(=O)Nc1ccccc1N)[C@@H]3C	9280 nM	2670 nM	90000 nM	230 nM	210 nM			
C=Cc1c(C)c2cc3nc(c(C(=O)OC)c4[nH]c(cc5nc(cc1[nH]2)C(C)=C5CC)c(C)c4C(=O)OC)[C@@H](CCC(=O)NCCCCC(=O)NO)[C@@H]3C	2810 nM	1510 nM	49000 nM	180 nM	108 nM			
C=Cc1c(C)c2cc3nc(c(C(=O)OC)c4[nH]c(cc5nc(cc1[nH]2)C(C)=C5CC)c(C)c4C(=O)OC)[C@@H](CCC(=O)NCCCC(=O)NO)[C@@H]3C	5540 nM	1840 nM	40000 nM	220 nM	220 nM			
C=Cc1c(C)c2cc3nc(cc4[nH]c(cc5nc(cc1[nH]2)C(C)=C5CC)c(C)c4C(=O)OC)[C@@H](CCC(=O)O)[C@@H]3C	21800 nM	15300 nM		920 nM	1470 nM			
C=Cc1c(C)c2cc3nc(cc4[nH]c(cc5nc(cc1[nH]2)C(C)=C5CC)c(C)c4C(=O)OC)[C@@H](CCC(=O)Nc1ccc(C(=O)NO)cc1)[C@@H]3C	4600 nM	9240 nM	28000 nM	900 nM	31 nM			
